Experiments:
[1] = molecular target: T1, Cytochrome P450 1A1 (Homo sapiens, UniProt P04798); experiment: Inhibition of CYP1A1 (unknown origin) expressed in HEK293-T-REx cells co-expressing POR incubated for 1 hr by resorufin dye based plate reader analysis; type: ADME, cell-based
T1 sequence (P04798 whole entry): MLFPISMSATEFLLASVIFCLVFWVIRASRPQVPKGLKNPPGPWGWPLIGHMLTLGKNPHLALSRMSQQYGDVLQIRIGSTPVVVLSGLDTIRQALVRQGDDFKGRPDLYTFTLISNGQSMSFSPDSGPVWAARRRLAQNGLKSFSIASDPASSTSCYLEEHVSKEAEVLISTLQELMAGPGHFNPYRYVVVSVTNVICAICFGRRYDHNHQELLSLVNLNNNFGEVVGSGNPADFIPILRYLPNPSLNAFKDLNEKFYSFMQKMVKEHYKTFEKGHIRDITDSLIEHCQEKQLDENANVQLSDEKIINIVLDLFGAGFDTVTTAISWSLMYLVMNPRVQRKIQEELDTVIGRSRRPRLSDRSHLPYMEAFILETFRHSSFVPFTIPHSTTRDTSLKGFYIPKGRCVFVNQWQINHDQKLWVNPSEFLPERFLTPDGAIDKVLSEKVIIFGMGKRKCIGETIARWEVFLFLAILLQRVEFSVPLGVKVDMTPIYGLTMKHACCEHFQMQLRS

[2] = molecular target: T2, Cytochrome P450 1B1 (Homo sapiens, UniProt Q16678); experiment: Inhibition of CYP1B1 (unknown origin) expressed in HEK293-T-REx cells co-expressing POR incubated for 1 hr by resorufin dye based plate reader analysis; type: ADME, cell-based
T2 sequence (Q16678 whole entry): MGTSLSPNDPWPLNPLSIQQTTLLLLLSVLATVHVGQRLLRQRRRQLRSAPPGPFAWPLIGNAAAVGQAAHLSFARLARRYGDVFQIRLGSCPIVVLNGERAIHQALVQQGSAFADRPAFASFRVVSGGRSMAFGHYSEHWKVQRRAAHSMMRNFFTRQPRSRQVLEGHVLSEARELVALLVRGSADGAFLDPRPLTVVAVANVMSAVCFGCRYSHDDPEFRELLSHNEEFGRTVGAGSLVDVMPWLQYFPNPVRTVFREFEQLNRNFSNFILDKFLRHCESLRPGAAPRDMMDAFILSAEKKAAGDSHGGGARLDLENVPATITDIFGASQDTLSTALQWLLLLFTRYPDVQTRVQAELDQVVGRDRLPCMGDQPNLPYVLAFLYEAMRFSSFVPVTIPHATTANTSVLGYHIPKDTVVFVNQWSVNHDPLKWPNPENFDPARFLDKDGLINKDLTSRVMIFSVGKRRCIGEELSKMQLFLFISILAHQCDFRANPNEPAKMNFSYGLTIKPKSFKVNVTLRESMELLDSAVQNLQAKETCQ

[3] = tested on: CYP1A1 versus CYP1B1; experiment: Selectivity index, ratio of IC50 for CYP1A1 (unknown origin) to IC50 for CYP1B1 (unknown origin); settings: read-out: Ratio IC50
[4] = Cytotoxicity against HEK293-T-REx cells assessed as reduction in cell viability measured after 72 hrs by resazurin dye based analysis; type: toxicity, Homo sapiens; settings: for IC50: hek293-t-rex; for IC50 at 72 h: human, HEK293-T-REx cells
[5] = molecular target: Cytochrome P450 1B1 (Homo sapiens, UniProt Q16678, T510V); experiment: Inhibition of CYP1B1 T510V mutant (unknown origin) expressed in HEK293-T-REx cells; type: ADME, cell-based
Chain of Cytochrome P450 1B1 (Homo sapiens, UniProt Q16678, T510V) (Q16678 whole entry T510V): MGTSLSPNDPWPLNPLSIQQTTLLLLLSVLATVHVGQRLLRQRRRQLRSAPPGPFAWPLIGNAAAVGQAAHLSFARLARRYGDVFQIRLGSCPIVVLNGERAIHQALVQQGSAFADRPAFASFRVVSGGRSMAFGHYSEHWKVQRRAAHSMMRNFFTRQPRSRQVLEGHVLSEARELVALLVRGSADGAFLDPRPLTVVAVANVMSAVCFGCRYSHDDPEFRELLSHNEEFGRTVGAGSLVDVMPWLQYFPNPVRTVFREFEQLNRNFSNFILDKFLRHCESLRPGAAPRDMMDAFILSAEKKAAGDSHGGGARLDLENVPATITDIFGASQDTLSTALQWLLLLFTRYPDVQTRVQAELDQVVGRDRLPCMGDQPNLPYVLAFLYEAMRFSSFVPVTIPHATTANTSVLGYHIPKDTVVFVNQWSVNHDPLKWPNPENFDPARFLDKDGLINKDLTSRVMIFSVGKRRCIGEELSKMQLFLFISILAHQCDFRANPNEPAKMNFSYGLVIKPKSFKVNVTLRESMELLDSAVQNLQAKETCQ

[6] = molecular target: Cytochrome P450 1B1 (Homo sapiens, UniProt Q16678, T334V); experiment: Inhibition of CYP1B1 T334V mutant (unknown origin) expressed in HEK293-T-REx cells; type: ADME, cell-based
Chain of Cytochrome P450 1B1 (Homo sapiens, UniProt Q16678, T334V) (Q16678 whole entry T334V): as the sequence (Q16678 whole entry T510V) above, with T334V, V510T counted along it

[7] = molecular target: Cytochrome P450 1B1 (Homo sapiens, UniProt Q16678, S127C); experiment: Inhibition of CYP1B1 S127C mutant (unknown origin) expressed in HEK293-T-REx cells; type: ADME, cell-based
Chain of Cytochrome P450 1B1 (Homo sapiens, UniProt Q16678, S127C) (Q16678 whole entry S127C): as the sequence (Q16678 whole entry T510V) above, with S127C, V510T counted along it

[8] = molecular target: T2, Cytochrome P450 1B1; experiment: Binding affinity to N-terminal human microsomal CYP1B1 expressed in Escherichia coli assessed as spectral dissociation constant by absorbance based analysis
[9] = in vitro; settings: human, liver
[10] = in vitro; settings: rat, liver
[11] = in vitro; settings: mouse, liver

C#C[C@]1(O)CC[C@H]2[C@@H]3CCc4cc(O)c(-c5ccc(OC)cc5)cc4[C@H]3CC[C@@]21C
IC50 [1]: 9.2 µM
IC50 [2]: 0.37 µM
selectivity ratio [3]: 25

COc1ccc(-c2nc(-c3ccc(F)cc3)cs2)c(OC)c1
IC50 [4]: 51.4 µM

COc1cc(OC)cc(-c2cccc(-c3cc(OC)cc(OC)c3)c2)c1
IC50 [4]: 4.18 µM

COc1ccc(-c2nc(-c3ccc(C#N)cc3)cs2)c(OC)c1
inhibition (INH) [5]: Not Active
IC50 [4]: > 100 µM
inhibition (INH) [6]: Not Active

COc1cc(OC)cc(-c2ccc(-c3cc(OC)cc(OC)c3)s2)c1
IC50 [4]: > 10 µM

COc1ccc(-c2nc(-c3cccnc3)cs2)c(OC)c1
IC50 [4]: 26.7 µM

COc1ccc(-c2csc(-c3ccc(OC)cc3OC)n2)cc1
IC50 [4]: > 100 µM

O=c1cc(-c2ccccc2)oc2c1ccc1ccccc12 [ALPHA-NAPHTHOFLAVONE]
inhibition (INH) [5]: Active
IC50 [4]: 14.8 µM
inhibition (INH) [7]: Active
inhibition (INH) [6]: Not Active

COc1ccc(-c2cccc(-c3ccc(OC)cc3OC)c2)c(OC)c1
IC50 [4]: 1.62 µM

COc1cc(OC)cc(-c2cncc(-c3cc(OC)cc(OC)c3)c2)c1
IC50 [4]: 0.18 µM

COc1ccc(-c2nc(-c3ccc(O)cc3)cs2)c(OC)c1
IC50 [4]: 3.4 µM
IC50 [2]: 0.6 µM
Kd [8]: 0.35 µM

COc1ccc(OC)c2c1c(OC)cc1c(=O)cc(-c3cccc(F)c3)oc12
IC50 [1]: 0.012 µM

COc1ccc(/C=C/c2ccncc2)c(OC)c1
IC50 [1]: 4.57 µM

COc1ccc(-c2csc(-c3ccc(OC)cc3OC)n2)c(OC)c1
IC50 [4]: ~100 µM

O=C(O)Cc1ccccc1Nc1c(Cl)cccc1Cl [DICLOFENAC]
CLint scaled at 100 µM [9]: 19.4 L/h/kg
CLint scaled at 100 µM [10]: 8.49 L/h/kg
CLint scaled at 100 µM [11]: 10.7 L/h/kg

COc1cc(OC)cc(-c2ccnc(-c3cc(OC)cc(OC)c3)n2)c1
IC50 at 72 h [4]: 10 µM

COc1cc(OC)cc(-c2cc(-c3cc(OC)cc(OC)c3)ncn2)c1
IC50 [4]: 10 µM

COc1cc(/C=C/c2ccc(OC)cc2OC)cc(OC)c1
inhibition (INH) [5]: Not Active
IC50 [4]: 1.3 µM
inhibition (INH) [7]: Active
inhibition (INH) [6]: Not Active

COc1cc(OC)cc(-c2csc(-c3cc(OC)cc(OC)c3)n2)c1
IC50 at 72 h [4]: 10 µM

Reference: ChEMBL document CHEMBL5325398, “Design of Cytochrome P450 1B1 Inhibitors via a Scaffold-Hopping Approach” (J Med Chem, 2023)
